Experiment in all cases: growth of human tumour cells (NCI), 48 h
Experiment [1] relates to NCI-H460 lung.
In experiment [2] the test system is A549 NSCLC.
Experiment [3] has as its system OVCAR-5 ovarian.
For experiment [4], the system named is NCI-H23 lung.
In experiment [5] the test system is HL-60(TB) leukemia.
The subject of experiment [6] is SK-MEL-5 melanoma.
Experiment [7] deals with SW-620 colon.
For experiment [8], the system named is SK-MEL-28 melanoma.
Experiment [9] concerns HOP-62 NSCLC.
The test system of experiment [10] is OVCAR-8 ovarian.

Converted amounts (≈) assume the structure as drawn.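 Tested at 5 concentrations; 48 h exposure; 96-well plates; endpoints linearly interpolated, else capped at highest concentration. Here, GI50 denotes the concentration required for 50% inhibition of growth. TGI: total growth inhibition.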 Where only a bound is given, the exact number is not on record here.

As to `CC(=O)c1c(C)nc(SSc2nc(C)c(C(C)=O)c(-c3ccc(Cl)cc3)c2C#N)c(C#N)c1-c1ccc(Cl)cc1`, the GI50 in experiment [1] is 136 µg/mL (≈ 225 µM); in experiment [2], 73 µg/mL; in experiment [3], above 150 µg/mL; in experiment [4] it was 67.4 µg/mL; in experiment [5], above 150 µg/mL; in experiment [6], 61.7 µg/mL (≈ 102 µM). Moreover, the GI50 in [7] is 69.4 µg/mL (≈ 115 µM); in experiment [8], 103 µg/mL (≈ 171 µM); in [9], 47.5 µg/mL (≈ 78.7 µM); in experiment [10], 79.2 µg/mL (≈ 131 µM). Besides, the TGI in [1], in [2], in experiment [3], in [4], in experiment [5] and in [6] was above 150 µg/mL throughout. Also, the TGI in [7], in experiment [8], in experiment [9] and in experiment [10] was above 150 µg/mL throughout.

Take `O=C(N/N=C/c1cc(Cl)cc(Cl)c1[O-])c1ccccc1O.O=C(N/N=C/c1cc(Cl)cc(Cl)c1[O-])c1ccccc1O.[Co+2]`: the TGI in experiment [1] worked out at 11.1 µM; in [2] it was 13.2 µM; in [3] it was 6.27 µM; in experiment [4], 5.47 µM; in experiment [5], 0.634 µM; in experiment [6] it was 2.53 µM. For the same compound, the TGI in experiment [7] came to 16.8 µM; in experiment [8] it was 12.1 µM; in [9], 5.07 µM; in [10] it was 11.6 µM. The GI50 in experiment [2] was 0.532 µM; in [4], 0.814 µM.

In the case of `CC(=O)Nc1ccc(C(=O)NN2C(=O)C(Cl)/C2=C/c2ccco2)cc1` (configuration not stated), the TGI in experiment [1], in [2], in experiment [3], in experiment [4], in experiment [5] and in [6] was above 100 µM each time. The TGI in [7], in experiment [8], in [9] and in [10] was above 100 µM in each case.

On to `CC(=O)OCC1OC(n2cc(F)c(=O)[nH]c2=O)C(NC(=O)OCc2ccccc2)C(OC(C)=O)C1OC(C)=O` (configuration not stated), for which the TGI in experiment [1], in experiment [2], in experiment [3], in experiment [4], in experiment [5] and in experiment [6] was above 100 µM in each case. The TGI in experiment [7], in experiment [8], in experiment [9] and in [10] was above 100 µM each time.

Regarding `CCP(=O)(CC)C(Cl)Cl`, the TGI in experiment [1], in experiment [2], in experiment [3], in [4], in [5] and in experiment [6] was above 100 µM each time. The TGI in experiment [7], in experiment [8], in [9] and in experiment [10] was above 100 µM throughout.

Regarding `Nc1[nH]nc(Nc2ccc(Cl)cc2)c1P(=O)(c1ccccc1)c1ccccc1`, the TGI in [1] was above 100 µM; in experiment [2], above 100 µM; in experiment [3], 45.6 µM; in experiment [4] it was above 100 µM; in [5], 82.3 µM; in experiment [6] it was 67.7 µM. The TGI in [7] was above 100 µM; in [8] it was 64.9 µM; in experiment [9], 49.1 µM; in experiment [10] it was 46.4 µM.

Values taken from PubChem BioAssay (NCI).
